Laboratory results published in US9493411B2 (AbbVie Inc., priority 2013, dated 2016).

Columns and labels:
BRD4 (BDII_E352-M457) = target: T1, BRD4 (BDII_E352-M457) (Homo sapiens, UniProt O60885); assay: TR-FRET bromodomain binding assay, BRD4 second bromodomain; settings: His-tagged BD2, Alexa647-labeled probe 30 nM; Ki calculated from IC50
T1 construct: made in house
Method: (§1) A time-resolved fluorescence resonance energy transfer (TR-FRET) assay was used to determine the affinities of compounds of the Examples listed in Table 1 for each bromodomain of BRD4. His-tagged first (BD1: amino acids K57-E168) and second (BD2: amino acids E352-E168) bromodomains of BRD4 were expressed and purified. An Alexa647-labeled BET-inhibitor was used as the fluorescent probe in the assay.
(§2) Compound dilution series were prepared in DMSO via a 3-fold serial dilution from 2.5 mM to 42 nM. Compounds were then diluted 6:100 in assay buffer (20 mM Sodium Phosphate, pH 6.0, 50 mM NaCl, 1 mM Ethylenediaminetetraacetic acid disodium salt dihydrate, 0.01% Triton X-100, 1 mM DL-Dithiothreitol) to yield 3× working solutions. Six microliters (μL) of the working solution was then transferred to white, low-volume assay plates (Costar #3673). A 1.5× assay mixture containing His-tagged bromodomain, Europium-conjugated anti-His antibody (Invitrogen PV5596) and the Alexa-647-conjugated probe molecule was also prepared. Twelve μL of this solution were added to the assay plate to reach a final volume of 18 μL. The final concentration of 1× assay buffer contains 2% DMSO, 50 μM-0.85 nM compound, 8 nM His-tagged bromodomain, 1 nM Europium-conjugated anti-His-tag antibody and 100 nM or 30 nM probe (for BDI or BDII, respectively). After a one-hour incubation at room temperature, TR-FRET ratios were determined using an Envision multilabel plate reader (Ex 340, Em […]).
(§3) TR-FRET data were normalized to the means of 24 no-compound controls (“high”) and 8 controls containing 1 μM un-labeled probe (“low”). Percent inhibition was plotted as a function of compound concentration and the data were fit with the 4 parameter logistic equation to obtain IC50s. Inhibition constants (Ki) were calculated from the IC50s, probe Kd and probe concentration. Typical Z′ values were between 0.65 and 0.75. The minimum significant ratio was determined to evaluate assay reproducibility (Eastwood et al., (2006) J Biomol Screen, 11: 253-261). The MSR was determined to be 2.03 for BDI and 1.93 for BDII, and a moving MSR (last six run MSR overtime) for both BDI and BDII was typically <3.

BRD4 (BDI_K57-E168) = target: T2, BRD4 (BDI_K57-E168) (Homo sapiens, UniProt O60885); assay: TR-FRET bromodomain binding assay, BRD4 first bromodomain; settings: His-tagged BD1, Alexa647-labeled probe 100 nM; Ki calculated from IC50
T2 construct: BD1: amino acids K57-E168; made in house
Method: as §1, §2, §3

Row | SMILES | Ki (BRD4 (BDII_E352-M457)) [µM] | Ki (BRD4 (BDI_K57-E168)) [µM]
1 | Cc1[nH]c(-c2ccc(-c3ccsc3)cc2)cc1C(N)=O [Example 101, 2-methyl-5-[4-(thiophen-3-yl)phenyl]-1H-pyrrole-3-carboxamide] | 5.33 | 7.37
2 | Cc1[nH]c(-c2ccc(-c3cccc(C(=O)N(C)C)c3)cc2)cc1C(N)=O [Example 104, 5-[3′-(dimethylcarbamoyl)biphenyl-4-yl]-2-methyl-1H-pyrrole-3-carboxamide] | 2.34 | 2.38
3 | COc1cc(CNc2ccccc2-c2cc(C(N)=O)c(C)[nH]2)cc(OC)c1OC [Example 16, 2-methyl-5-{2-[(3,4,5-trimethoxybenzyl)amino]phenyl}-1H-pyrrole-3-carboxamide] | 2.02 | 1.18
4 | Cc1[nH]c(-c2cccc(-c3ccc4c(ccn4C)c3)c2)cc1C(N)=O [Example 156, 2-methyl-5-[3-(1-methyl-1H-indol-5-yl)phenyl]-1H-pyrrole-3-carboxamide] | 21.9 | 8.49
5 | Cc1[nH]c(-c2cccc(-c3cccnc3)c2)cc1C(N)=O [Example 154, 2-methyl-5-[3-(pyridin-3-yl)phenyl]-1H-pyrrole-3-carboxamide] | 7.12 | 2.99
6 | Cc1[nH]c(-c2ccccc2NCC2CCCCC2)cc1C(N)=O [Example 36, 5-{2-[(cyclohexylmethyl)amino]phenyl}-2-methyl-1H-pyrrole-3-carboxamide] | 1.16 | 0.521
7 | Cc1[nH]c(-c2cccc(NS(C)(=O)=O)c2)cc1C(N)=O [Example 6, 2-methyl-5-{3-[(methylsulfonyl)amino]phenyl}-1H-pyrrole-3-carboxamide] | 5.01 | 3.16
8 | Cc1[nH]c(-c2ccccc2NCc2cc(Cl)cc(Cl)c2)cc1C(N)=O [Example 39, 5-{2-[(3,5-dichlorobenzyl)amino]phenyl}-2-methyl-1H-pyrrole-3-carboxamide] | 4.98 | 3.82
9 | Cc1[nH]c(-c2cccc(-c3cn[nH]c3)c2)cc1C(N)=O [Example 155, 2-methyl-5-[3-(1H-pyrazol-4-yl)phenyl]-1H-pyrrole-3-carboxamide] | 5.46 | 2.57
10 | Cc1[nH]c(-c2ccccc2NC2CCCCCC2)cc1C(N)=O [Example 73, 5-[2-(cycloheptylamino)phenyl]-2-methyl-1H-pyrrole-3-carboxamide] | 3.83 | 0.862
11 | COc1cc(-c2ccc(-c3cc(C(N)=O)c(C)[nH]3)cc2)cc(OC)c1OC [Example 99, 2-methyl-5-(3′,4′,5′-trimethoxybiphenyl-4-yl)-1H-pyrrole-3-carboxamide] | 2.32 | 2.3
12 | Cc1[nH]c(-c2ccccc2NCc2cc(C(F)(F)F)cc(C(F)(F)F)c2)cc1C(N)=O [Example 21, 5-(2-{[3,5-bis(trifluoromethyl)benzyl]amino}phenyl)-2-methyl-1H-pyrrole-3-carboxamide] | 21.5 | 9.69
13 | Cc1[nH]c(-c2ccc(-c3cccc(C(=O)NCc4ccco4)c3)cc2)cc1C(N)=O [Example 106, 5-{3′-[(furan-2-ylmethyl)carbamoyl]biphenyl-4-yl}-2-methyl-1H-pyrrole-3-carboxamide] | 4.87 | 6.01
14 | COC(=O)CCNC(=O)c1cc(-c2ccc(-c3c(C)noc3C)cc2)[nH]c1C [Example 93, methyl N-({5-[4-(3,5-dimethyl-1,2-oxazol-4-yl)phenyl]-2-methyl-1H-pyrrol-3-yl}carbonyl)-beta-alaninate] | 6.42 | 5.09
15 | Cc1[nH]c(-c2cccc(N)c2)cc1C(N)=O [Example 4, 5-(3-aminophenyl)-2-methyl-1H-pyrrole-3-carboxamide] | 4.44 | 5.19
16 | Cc1[nH]c(-c2ccccc2NCc2ccc(CO)o2)cc1C(N)=O [Example 55, 5-[2-({[5-(hydroxymethyl)furan-2-yl]methyl}amino)phenyl]-2-methyl-1H-pyrrole-3-carboxamide] | 4.94 | 0.722
17 | Cc1[nH]c(-c2ccc(-c3cccc(O)c3)cc2)cc1C(N)=O [Example 98, 5-(3′-hydroxybiphenyl-4-yl)-2-methyl-1H-pyrrole-3-carboxamide] | 7.01 | 11.3
18 | Cc1[nH]c(-c2ccccc2NS(=O)(=O)CC(F)(F)F)cc1C(N)=O [Example 86, 2-methyl-5-(2-{[(2,2,2-trifluoroethyl)sulfonyl]amino}phenyl)-1H-pyrrole-3-carboxamide] | 2.6 | 3.03
19 | Cc1[nH]c(-c2ccc(-c3cncnc3)cc2)cc1C(N)=O [Example 109, 2-methyl-5-[4-(pyrimidin-5-yl)phenyl]-1H-pyrrole-3-carboxamide] | 4.42 | 9.24
20 | Cc1noc(C)c1-c1ccc(-c2cc(C(=O)NO)c(C)[nH]2)cc1 [Example 95, 5-[4-(3,5-dimethyl-1,2-oxazol-4-yl)phenyl]-N-hydroxy-2-methyl-1H-pyrrole-3-carboxamide] | 5.62 | 5.07
21 | Cc1[nH]c(-c2ccc(NS(C)(=O)=O)cc2)cc1C(N)=O [Example 9, 2-methyl-5-{4-[(methylsulfonyl)amino]phenyl}-1H-pyrrole-3-carboxamide] | 3.14 | 2.88

The remaining lines, values ahead:

Row | Ki (BRD4 (BDII_E352-M457)) [µM] | Ki (BRD4 (BDI_K57-E168)) [µM] | SMILES
22 | 2.16 | 1.26 | Cc1cccc(CNc2ccccc2-c2cc(C(N)=O)c(C)[nH]2)c1 [Example 25, 2-methyl-5-{2-[(3-methylbenzyl)amino]phenyl}-1H-pyrrole-3-carboxamide]
23 | 1.98 | 0.564 | Cc1[nH]c(-c2ccccc2Oc2cccc3c2CCCC3)cc1C(N)=O [Example 136, 2-methyl-5-[2-(5,6,7,8-tetrahydronaphthalen-1-yloxy)phenyl]-1H-pyrrole-3-carboxamide]
24 | 3.53 | 3.52 | Cc1[nH]c(-c2ccccc2NCc2ccc(F)cc2)cc1C(N)=O [Example 23, 5-{2-[(4-fluorobenzyl)amino]phenyl}-2-methyl-1H-pyrrole-3-carboxamide]
25 | 0.351 | 0.122 | Cc1[nH]c(-c2ccccc2Oc2ccccc2)cc1C(N)=O [Example 89, 2-methyl-5-(2-phenoxyphenyl)-1H-pyrrole-3-carboxamide]
26 | 7.04 | 1.96 | Cc1[nH]c(-c2ccccc2Oc2ccc(Oc3ccccc3)cc2)cc1C(N)=O [Example 122, 2-methyl-5-[2-(4-phenoxyphenoxy)phenyl]-1H-pyrrole-3-carboxamide]
27 | 10.5 | 0.63 | Cc1[nH]c(-c2cc(CC(=O)O)ccc2OCc2ccccc2)cc1C(N)=O [Example 166, [4-(benzyloxy)-3-(4-carbamoyl-5-methyl-1H-pyrrol-2-yl)phenyl]acetic acid]
28 | 12.6 | 1.97 | Cc1[nH]c(-c2ccccc2Oc2ccc(C#N)cc2)cc1C(N)=O [Example 123, 5-[2-(4-cyanophenoxy)phenyl]-2-methyl-1H-pyrrole-3-carboxamide]
29 | 2.34 | 0.663 | Cc1[nH]c(-c2ccccc2NC2Cc3ccccc3C2)cc1C(N)=O [Example 69, 5-[2-(2,3-dihydro-1H-inden-2-ylamino)phenyl]-2-methyl-1H-pyrrole-3-carboxamide]
30 | 1.23 | 0.446 | Cc1[nH]c(-c2ccccc2Oc2ccc3c(c2)CCC3)cc1C(N)=O [Example 144, 5-[2-(2,3-dihydro-1H-inden-5-yloxy)phenyl]-2-methyl-1H-pyrrole-3-carboxamide]
31 | 16.4 | 3.08 | Cc1[nH]c(-c2ccccc2NCc2ccc(N)cc2)cc1C(N)=O [Example 52, 5-{2-[(4-aminobenzyl)amino]phenyl}-2-methyl-1H-pyrrole-3-carboxamide]
32 | 3.45 | 1.4 | Cc1[nH]c(-c2ccccc2NCc2ccccc2Cl)cc1C(N)=O [Example 34, 5-{2-[(2-chlorobenzyl)amino]phenyl}-2-methyl-1H-pyrrole-3-carboxamide]
33 | 7.32 | 2.22 | CC(=O)c1ccccc1-c1cccc(-c2cc(C(N)=O)c(C)[nH]2)c1 [Example 153, 5-(2′-acetylbiphenyl-3-yl)-2-methyl-1H-pyrrole-3-carboxamide]
34 | 3.26 | 2.7 | Cc1[nH]c(-c2ccccc2NCc2cccc(Cl)c2)cc1C(N)=O [Example 35, 5-{2-[(3-chlorobenzyl)amino]phenyl}-2-methyl-1H-pyrrole-3-carboxamide]
35 | 10.3 | 5.17 | Cc1[nH]c(-c2ccccc2NCc2ccc(Br)cc2)cc1C(N)=O [Example 32, 5-{2-[(4-bromobenzyl)amino]phenyl}-2-methyl-1H-pyrrole-3-carboxamide]
